Source: the supplement of paper PMC10307832

These cell lines were tested with Cc1cnc(CNC(=O)c2c(=O)c3ccc(N4CCCN(C)CC4)nc3n3c2sc2ccccc23)cn1 [CX-5461] + COc1cccc2cc(-c3nc([C@H]4CC[C@H](C(=O)O)CC4)n4ncnc(N)c34)[nH]c12 [OSI-027] (partner 0.5 µM) (assay: relative viability (nuclei count vs DMSO), 5 days (fraction); higher = more cells survive). Conditions: first compound 0.01 µM.
Method in brief: (§1)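 Relative viability is defined as nuclei in treated wells over nuclei in vehicle wells. Duplicate plates were run and medians reported. Lung cancer cell lines in 1536-well plates were dosed by pin tool one day after seeding, with one drug or with a fixed anchor-drug dose plus five library-drug doses (not always all listed) in √10 steps, and nuclei were counted after 5 days.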

Row | Cell Line | relative viability
1 | HOP-62 | 0.824
2 | HCC-44 | 0.564
3 | SW 900 | 0.423
4 | LU99A | 0.338
5 | BEN | 0.346
6 | HARA | 0.616
7 | HCC-78 | 0.409
8 | NCI-H322M | 0.534
9 | LCLC-97TM1 | 0.483
10 | NCI-H2009 | 0.696
11 | A-427 | 0.488
12 | NCI-H441 | 0.696
13 | NCI-H661 | 0.654
14 | NCI-H1734 | 0.586
15 | NCI-H460 | 0.573
16 | NCI-H2347 | 0.326
17 | SW 1573 | 0.61
18 | NCI-H1793 | 0.296
19 | 201T | 0.911
20 | NCI-H1915 | 0.664
21 | HCC-827 | 0.838
22 | LXF-289 | 0.755
23 | NCI-H23 | 0.672
24 | NCI-H647 | 0.742
25 | CAL-12T | 0.587
26 | NCI-H1651 | 0.61
27 | EPLC-272H | 0.259

Same assay, conditions: first compound 0.03162 µM

Row | Cell Line | relative viability
28 | HOP-62 | 0.941
29 | HCC-44 | 0.623
30 | SW 900 | 0.601
31 | LU99A | 0.295
32 | BEN | 0.321
33 | HARA | 0.572
34 | HCC-78 | 0.362
35 | NCI-H322M | 0.552
36 | LCLC-97TM1 | 0.591
37 | NCI-H2009 | 0.651
38 | A-427 | 0.534
39 | NCI-H441 | 0.659
40 | NCI-H661 | 0.698
41 | NCI-H1734 | 0.646
42 | NCI-H460 | 0.541
43 | NCI-H2347 | 0.395
44 | SW 1573 | 0.621
45 | NCI-H1793 | 0.289
46 | 201T | 0.669
47 | NCI-H1915 | 0.692
48 | HCC-827 | 0.828
49 | LXF-289 | 0.924
50 | NCI-H23 | 0.757
51 | NCI-H647 | 0.565
52 | CAL-12T | 0.693
53 | NCI-H1651 | 0.62
54 | EPLC-272H | 0.288

Same assay, conditions: first compound 0.1 µM

Row | Cell Line | relative viability
55 | HOP-62 | 0.83
56 | HCC-44 | 0.6
57 | SW 900 | 0.488
58 | LU99A | 0.333
59 | BEN | 0.286
60 | HARA | 0.423
61 | HCC-78 | 0.366
62 | NCI-H322M | 0.578
63 | LCLC-97TM1 | 0.49
64 | NCI-H2009 | 0.471
65 | A-427 | 0.542
66 | NCI-H441 | 0.607
67 | NCI-H661 | 0.615
68 | NCI-H1734 | 0.706
69 | NCI-H2347 | 0.411
70 | SW 1573 | 0.401
71 | NCI-H1793 | 0.318
72 | 201T | 0.726
73 | NCI-H1915 | 0.601
74 | HCC-827 | 0.79
75 | LXF-289 | 0.892
76 | NCI-H23 | 0.546
77 | NCI-H647 | 0.669
78 | CAL-12T | 0.389
79 | EPLC-272H | 0.297

Same assay, conditions: first compound 0.3162 µM

Row | Cell Line | relative viability
80 | HOP-62 | 0.93
81 | HCC-44 | 0.51
82 | SW 900 | 0.386
83 | LU99A | 0.257
84 | BEN | 0.281
85 | HCC-78 | 0.363
86 | NCI-H322M | 0.389
87 | NCI-H2009 | 0.697
88 | NCI-H441 | 0.534
89 | NCI-H661 | 0.834
90 | NCI-H1734 | 0.499
91 | NCI-H460 | 0.684
92 | NCI-H2347 | 0.553
93 | SW 1573 | 0.477
94 | 201T | 0.502
95 | NCI-H1915 | 0.599
96 | HCC-827 | 0.757
97 | LXF-289 | 0.416
98 | NCI-H23 | 0.544
99 | NCI-H647 | 0.566
100 | CAL-12T | 0.679
101 | NCI-H1651 | 0.458

Same assay, conditions: first compound 1 µM

Row | Cell Line | relative viability
102 | HOP-62 | 0.594
103 | HCC-44 | 0.366
104 | SW 900 | 0.271
105 | LU99A | 0.258
106 | BEN | 0.284
107 | HARA | 0.319
108 | HCC-78 | 0.354
109 | NCI-H322M | 0.393
110 | LCLC-97TM1 | 0.484
111 | NCI-H2009 | 0.516
112 | A-427 | 0.378
113 | NCI-H441 | 0.408
114 | NCI-H661 | 0.387
115 | NCI-H1734 | 0.445
116 | NCI-H460 | 0.0247
117 | NCI-H2347 | 0.395
118 | SW 1573 | 0.179
119 | NCI-H1793 | 0.198
120 | 201T | 0.552
121 | NCI-H1915 | 0.605
122 | HCC-827 | 0.735
123 | LXF-289 | 0.581
124 | NCI-H23 | 0.343
125 | NCI-H647 | 0.467
126 | CAL-12T | 0.347
127 | NCI-H1651 | 0.131
128 | EPLC-272H | 0.31

What follows are cell lines tested with Cc1cnc(CNC(=O)c2c(=O)c3ccc(N4CCCN(C)CC4)nc3n3c2sc2ccccc23)cn1 [CX-5461] + CC(=O)c1c(C)c2cnc(Nc3ccc(N4CCNCC4)cn3)nc2n(C2CCCC2)c1=O [Palbociclib] (partner 0.5 µM) in the same assay as above. Conditions: first compound 0.01 µM.
Method in brief: as §1

Row | Cell Line | relative viability
129 | HOP-62 | 0.415
130 | HCC-44 | 0.906
